Literature values in patent US5696156A, “Triterpene derivatives with immunosuppressant activity” (Merck & Co. Inc., priority 1996, dated 1997).

Test system: Kv 1.3 channels
Settings: stated for the reference blocker that defines the efflux window

margatoxin (TIINVKCTSPKQCLPPCKAQFGQSAGAKCMNGKCKCYPH; UniProt P40755 1-39, looked up)
IC50: 0.1 nM
